# Target: T1, Muscarinic acetylcholine receptor M2 (Homo sapiens, UniProt P08172)
# T1 sequence (P08172 whole entry): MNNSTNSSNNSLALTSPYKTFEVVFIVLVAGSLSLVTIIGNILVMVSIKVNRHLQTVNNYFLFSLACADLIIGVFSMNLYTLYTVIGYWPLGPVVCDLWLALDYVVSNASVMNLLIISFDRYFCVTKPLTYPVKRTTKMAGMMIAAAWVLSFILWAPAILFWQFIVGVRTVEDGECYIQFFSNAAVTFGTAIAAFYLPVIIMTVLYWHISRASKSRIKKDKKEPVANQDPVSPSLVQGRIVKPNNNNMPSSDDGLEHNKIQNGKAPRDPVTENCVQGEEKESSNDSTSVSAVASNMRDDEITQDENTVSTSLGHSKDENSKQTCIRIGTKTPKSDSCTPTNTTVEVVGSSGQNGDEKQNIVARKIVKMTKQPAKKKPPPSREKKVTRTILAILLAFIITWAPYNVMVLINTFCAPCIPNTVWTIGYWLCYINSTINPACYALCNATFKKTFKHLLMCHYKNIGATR
# Test: Binding affinity against cloned human muscarinic acetylcholine receptor M2.
row,SMILES,Ki [nM]
1,CC(C)(C)NC(=O)c1ccc(CC2CCN(C3CCN(C(=O)c4ccc(F)c5ccccc45)CC3)CC2)cc1,18
2,CC(C)NC(=O)c1ccc(CC2CCN(C3CCN(C(=O)c4ccnc5ccccc45)CC3)CC2)cc1,40
3,Cc1cccc(C(=O)N2CCC(N3CCC(Cc4ccc(C(=O)NC(C)C)cc4)CC3)CC2)c1N,9
4,Cc1ccccc1C(=O)N1CCC(N2CCC(Cc3ccc(C(=O)NC(C)(C)C)cc3)CC2)CC1,106
5,O=C(NC1CCCCC1)c1ccc(CC2CCN(C3CCN(C(=O)c4ccc(F)c5ccccc45)CC3)CC2)cc1,1300
6,CC(C)NC(=O)c1ccc(CC2CCN(C3CCN(C(=O)c4ccc(F)c5c(F)cccc45)CC3)CC2)cc1,9
7,CC(C)NC(=O)c1ccc(CC2CCN(C3CCN(C(=O)c4cccc5nc[nH]c45)CC3)CC2)cc1,27
8,CC(C)NC(=O)c1ccc(C2(C3CCN(C4CCN(C(=O)c5ccccc5Cl)CC4)CC3)OCCO2)cc1,35
9,CC(C)NC(=O)c1ccc(CC2CCN(C3CCN(C(=O)c4ccccc4Cl)CC3)CC2)cc1,12
10,O=C(Nc1ccccc1)c1ccc(CC2CCN(C3CCN(C(=O)c4ccc(F)c5ccccc45)CC3)CC2)cc1,104
11,Cc1ccccc1C(=O)N1CCC(N2CCC(Cc3ccc(C(=O)NC4CCCCC4)cc3)CC2)CC1,15
12,Cc1ccccc1C(=O)N1CCC(N2CCC(Cc3ccc(C(=O)Nc4ccccc4)cc3)CC2)CC1,122
13,CC(C)NC(=O)c1ccc(CC2CCN(C3CCN(C(=O)c4ccccc4N)CC3)CC2)cc1,78
14,Cc1ccccc1C(=O)N1CCC(N2CCC(C3(c4ccc(C(=O)NC(C)C)cc4)OCCO3)CC2)CC1,9
15,CC(C)S(=O)(=O)c1ccc(CC2CCN(C3CCN(C(=O)c4ccc(F)c5ccccc45)CC3)CC2)cc1,17

# Molecules with a lower Ki, results first:
row,Ki [nM],SMILES
1,7,Cc1ccccc1C(=O)N1CCC(N2CCC(Cc3ccc(C(=O)NC(C)C)cc3)CC2)CC1
2,6,CC(C)NC(=O)c1ccc(CC2CCN(C3CCN(C(=O)c4c[nH]c5ccccc45)CC3)CC2)cc1
3,5,CC(C)NC(=O)c1ccc(CC2CCN(C3CCN(C(=O)c4cccc5c(F)cc(F)cc45)CC3)CC2)cc1
4,5,CC(C)NC(=O)c1ccc(CC2CCN(C3CCN(C(=O)c4ccc5[nH]ccc5c4)CC3)CC2)cc1
5,2.7,Cc1cccc(C(=O)N2CCC(N3CCC(C4(c5ccc(C(=O)NC(C)C)cc5)OCCO4)CC3)CC2)c1N
6,2.4,CC(C)NC(=O)c1ccc(C2(C3CCN(C4CCN(C(=O)c5ccc(F)c6ccccc56)CC4)CC3)OCCO2)cc1
7,2.1,CC(C)NC(=O)c1ccc(CC2CCN(C3CCN(C(=O)c4ccc(F)c5ccccc45)CC3)CC2)cc1
8,1.9,Cc1c(N)cccc1C(=O)N1CCC(N2CCC(C3(c4ccc(C(=O)NC(C)C)cc4)OCCO3)CC2)CC1
9,1.6,Cc1c(N)cccc1C(=O)N1CCC(N2CCC(Cc3ccc(C(=O)NC(C)C)cc3)CC2)CC1
10,1.6,CC(C)NC(=O)c1ccc(CC2CCN(C3CCN(C(=O)c4cccc5[nH]ccc45)CC3)CC2)cc1
11,1.1,CC(C)NC(=O)c1ccc(C2(C3CCN(C4CCN(C(=O)c5cccc6[nH]ccc56)CC4)CC3)OCCO2)cc1
